One series relates to plasma ammonia. Put plainly: Retrospective review of NAGS deficiency patients: plasma ammonia levels. It counts as in vivo, human. As to conditions: for Plasma ammonia, Mean (SD) / Plasma ammonia, Median / Plasma ammonia, Range: NAGS deficiency patients. The procedure:
Treatment with carglumic acid was divided in two regimens. For acute treatment, patients received a total daily dose of 100 mg/kg/day to 250 mg/kg/per day primarily administered in 2 to 4 divided doses for the first few days of treatment. For maintenance treatment, the dosage was reduced over time based on plasma ammonia level and clinical responses.
Short-term efficacy was evaluated using mean and median change in plasma ammonia levels from baseline to days 1 to 3. Persistence of efficacy was evaluated using long-term mean and median change in plasma ammonia level.
All 13 patients had abnormal plasma ammonia levels at baseline. […] Long-term efficacy was measured using the last reported plasma ammonia level for each of the 13 patients analyzed (median length of treatment was 6 years; range 1 to 16 years). The mean and median plasma ammonia levels were 23 micromol/L and 24 micromol/L, respectively, after a mean treatment duration of 8 years (Table 5).

The target of the next series is T1, human OATP1B1 (Homo sapiens, UniProt Q9Y6L6).
T1 sequence (Q9Y6L6 1-691): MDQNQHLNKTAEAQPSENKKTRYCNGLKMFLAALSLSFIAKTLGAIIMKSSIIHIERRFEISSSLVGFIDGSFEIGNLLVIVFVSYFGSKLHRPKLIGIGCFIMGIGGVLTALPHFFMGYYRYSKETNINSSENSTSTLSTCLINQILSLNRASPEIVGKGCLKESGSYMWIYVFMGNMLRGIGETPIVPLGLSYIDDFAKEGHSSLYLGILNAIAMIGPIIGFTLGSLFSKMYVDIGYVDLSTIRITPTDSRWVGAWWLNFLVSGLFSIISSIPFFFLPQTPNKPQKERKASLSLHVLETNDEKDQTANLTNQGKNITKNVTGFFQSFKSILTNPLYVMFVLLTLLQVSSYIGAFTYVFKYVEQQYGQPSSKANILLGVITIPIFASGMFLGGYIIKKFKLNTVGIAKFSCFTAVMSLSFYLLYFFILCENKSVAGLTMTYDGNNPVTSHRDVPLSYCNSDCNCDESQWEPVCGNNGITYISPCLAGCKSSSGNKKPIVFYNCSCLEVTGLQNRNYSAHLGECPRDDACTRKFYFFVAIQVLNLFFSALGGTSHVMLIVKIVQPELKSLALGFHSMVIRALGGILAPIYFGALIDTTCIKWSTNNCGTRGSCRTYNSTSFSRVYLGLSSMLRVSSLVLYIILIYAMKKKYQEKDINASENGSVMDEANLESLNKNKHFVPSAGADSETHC
In words: In vitro transporter inhibition. It counts as in vitro ADME. How it is done:
(§1) In vitro drug interaction studies were performed with human transporters. […] Potential interactions with inhibitors of the OAT1 transporter were considered clinically irrelevant.

A further series addresses T2, human OAT1 (Homo sapiens, UniProt Q4U2R8).
T2 sequence (Q4U2R8 1-563): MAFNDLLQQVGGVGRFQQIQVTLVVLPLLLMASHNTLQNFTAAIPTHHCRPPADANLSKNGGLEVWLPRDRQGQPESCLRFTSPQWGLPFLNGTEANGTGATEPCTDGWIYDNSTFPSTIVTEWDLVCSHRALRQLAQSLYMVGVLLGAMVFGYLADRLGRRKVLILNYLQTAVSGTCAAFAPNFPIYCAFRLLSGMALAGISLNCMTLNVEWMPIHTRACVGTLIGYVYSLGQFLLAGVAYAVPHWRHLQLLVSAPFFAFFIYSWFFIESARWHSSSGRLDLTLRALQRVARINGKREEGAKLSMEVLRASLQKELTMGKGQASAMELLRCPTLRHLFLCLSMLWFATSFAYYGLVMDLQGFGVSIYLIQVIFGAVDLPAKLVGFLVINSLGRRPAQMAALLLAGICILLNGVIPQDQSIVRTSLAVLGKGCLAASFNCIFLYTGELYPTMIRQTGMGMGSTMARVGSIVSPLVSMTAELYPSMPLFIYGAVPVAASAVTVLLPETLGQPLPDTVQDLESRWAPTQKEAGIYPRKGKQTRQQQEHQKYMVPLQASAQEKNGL
Put plainly: In vitro transporter inhibition. It counts as in vitro ADME. The procedure: as §1

For a further series, the target named is human MDR1 (Homo sapiens, UniProt P08183). Put plainly: In vitro transporter inhibition. It counts as in vitro ADME. How it is done:
as §1

Another series has as its target T3, human OAT3 (Homo sapiens, UniProt Q8TCC7).
T3 sequence (Q8TCC7 1-542): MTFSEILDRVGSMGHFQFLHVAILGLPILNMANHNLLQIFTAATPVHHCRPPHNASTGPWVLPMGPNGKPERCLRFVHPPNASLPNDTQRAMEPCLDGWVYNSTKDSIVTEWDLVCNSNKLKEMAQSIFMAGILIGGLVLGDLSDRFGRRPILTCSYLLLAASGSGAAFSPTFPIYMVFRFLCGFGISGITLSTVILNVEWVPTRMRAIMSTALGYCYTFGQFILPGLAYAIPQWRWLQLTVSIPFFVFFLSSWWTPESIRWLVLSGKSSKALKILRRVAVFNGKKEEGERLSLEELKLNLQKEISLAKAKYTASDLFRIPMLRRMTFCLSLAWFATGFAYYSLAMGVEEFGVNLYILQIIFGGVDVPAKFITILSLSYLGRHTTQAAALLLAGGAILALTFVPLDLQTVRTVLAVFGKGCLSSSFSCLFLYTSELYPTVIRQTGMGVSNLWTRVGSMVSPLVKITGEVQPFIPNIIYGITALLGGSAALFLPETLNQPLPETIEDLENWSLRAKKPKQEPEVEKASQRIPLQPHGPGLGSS
Put plainly: In vitro transporter inhibition. It counts as in vitro ADME. How it is done:
as §1

Where [1] appears, read: Long-term (mean 8 years), last available value on treatment.

Molecules are shown by their SMILES.

Sequence of human MDR1 (P08183 whole entry): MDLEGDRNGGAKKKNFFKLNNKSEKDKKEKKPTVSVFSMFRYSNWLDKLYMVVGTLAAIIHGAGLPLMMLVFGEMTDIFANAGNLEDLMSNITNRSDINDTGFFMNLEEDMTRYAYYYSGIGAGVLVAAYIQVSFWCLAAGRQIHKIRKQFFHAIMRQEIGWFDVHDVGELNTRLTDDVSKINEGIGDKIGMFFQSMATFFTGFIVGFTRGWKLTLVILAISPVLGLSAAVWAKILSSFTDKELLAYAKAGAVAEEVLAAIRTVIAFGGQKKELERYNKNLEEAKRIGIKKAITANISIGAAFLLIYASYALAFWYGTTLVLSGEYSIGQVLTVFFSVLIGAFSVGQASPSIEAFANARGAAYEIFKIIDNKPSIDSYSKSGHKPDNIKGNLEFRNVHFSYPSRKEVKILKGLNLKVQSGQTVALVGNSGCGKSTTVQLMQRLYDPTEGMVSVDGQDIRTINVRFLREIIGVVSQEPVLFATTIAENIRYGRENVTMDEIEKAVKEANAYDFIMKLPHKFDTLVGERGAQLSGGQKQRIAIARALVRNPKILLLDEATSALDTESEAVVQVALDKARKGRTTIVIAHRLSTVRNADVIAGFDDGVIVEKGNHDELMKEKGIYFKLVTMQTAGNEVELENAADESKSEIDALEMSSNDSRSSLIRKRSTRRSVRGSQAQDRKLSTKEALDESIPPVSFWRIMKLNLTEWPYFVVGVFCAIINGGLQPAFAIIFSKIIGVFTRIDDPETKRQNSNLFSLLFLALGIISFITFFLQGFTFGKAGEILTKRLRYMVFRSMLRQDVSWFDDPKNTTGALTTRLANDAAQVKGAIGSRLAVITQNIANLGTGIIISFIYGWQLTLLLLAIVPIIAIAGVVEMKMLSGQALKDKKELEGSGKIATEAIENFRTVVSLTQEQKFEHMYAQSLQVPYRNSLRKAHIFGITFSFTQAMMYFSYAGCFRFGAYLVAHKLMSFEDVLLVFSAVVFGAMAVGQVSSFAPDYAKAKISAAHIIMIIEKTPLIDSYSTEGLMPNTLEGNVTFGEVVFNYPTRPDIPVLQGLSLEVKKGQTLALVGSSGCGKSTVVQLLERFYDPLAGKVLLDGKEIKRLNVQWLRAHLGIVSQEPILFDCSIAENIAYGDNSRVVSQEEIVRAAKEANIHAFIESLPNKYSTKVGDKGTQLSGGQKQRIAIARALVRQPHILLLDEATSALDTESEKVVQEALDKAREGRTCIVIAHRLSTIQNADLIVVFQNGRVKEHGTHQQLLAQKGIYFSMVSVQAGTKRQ

Take `NC(=O)N[C@@H](CCC(=O)O)C(=O)O` [carglumic acid, N-carbamoyl-L-glutamic acid]: the “Differences in clinical response between adults and pediatric NAGS deficiency patients” value with plasma ammonia (23 NAGS deficiency patients) is reported as “no apparent differences”. Also, the “Plasma ammonia, Mean (SD)” value is 181 (358) micromole/L in the series with plasma ammonia (Day 1 of treatment); 69 (78) micromole/L with plasma ammonia (Day 2 of treatment); 27 (11) micromole/L with plasma ammonia (Day 3 of treatment); 23 µmol/L in the series with plasma ammonia (setting [1]); 23 (7) micromole/L with plasma ammonia (Long-term (mean 8 years), last available value on treatment, listed as Carglumic Acid). In addition, the “Plasma ammonia, Median” value in the series with plasma ammonia (Day 1 of treatment) is 65 µmol/L; with plasma ammonia (Day 2 of treatment), 44 µmol/L; in the series on plasma ammonia (Day 3 of treatment), 25 µmol/L; in the series on plasma ammonia (setting [1]), 24 µmol/L. In addition, the “Plasma ammonia, Range” value is 25 to 1190 µmol/L in the series with plasma ammonia (Day 1 of treatment), 11 to 255 µmol/L in the series on plasma ammonia (Day 2 of treatment), 12 to 42 µmol/L in the series with plasma ammonia (Day 3 of treatment) and 9 to 34 µmol/L in the series with plasma ammonia (setting [1]). For the same compound, in the series on plasma ammonia (patients for whom data were available, normal range 5 to 50 micromol/L), the “Plasma ammonia levels by day 3” value is reported as “normal plasma ammonia levels were attained”. Also, the “Inhibition of human OATP1B1 uptake transporter” value on human OATP1B1 is listed as “not an inhibitor”. The “Inhibition of human OAT1 uptake transporter” value at human OAT1 is “not an inhibitor”. Further, the “Inhibition of human MDR1 efflux transporter” value on human MDR1 is listed as “not an inhibitor”. Besides, at human OAT3, the “Inhibition of human OAT3 uptake transporter” value was “not an inhibitor”.

These data come from US20220040129A1, “TREATMENT OF HYPERAMMONEMIA IN PATIENTS WITH RENAL INSUFFICIENCY” (RECORDATI S.p.A., priority 2019, published 2022).
